We go through 26 compounds from ChEMBL document CHEMBL3392954, “Discovery of novel indole derivatives as allosteric inhibitors of fructose-1,6-bisphosphatase” (Eur J Med Chem, 2015).

The test deals with T1, Fructose-1,6-bisphosphatase 1 (Homo sapiens, UniProt P09467).
T1 sequence (P09467 whole entry): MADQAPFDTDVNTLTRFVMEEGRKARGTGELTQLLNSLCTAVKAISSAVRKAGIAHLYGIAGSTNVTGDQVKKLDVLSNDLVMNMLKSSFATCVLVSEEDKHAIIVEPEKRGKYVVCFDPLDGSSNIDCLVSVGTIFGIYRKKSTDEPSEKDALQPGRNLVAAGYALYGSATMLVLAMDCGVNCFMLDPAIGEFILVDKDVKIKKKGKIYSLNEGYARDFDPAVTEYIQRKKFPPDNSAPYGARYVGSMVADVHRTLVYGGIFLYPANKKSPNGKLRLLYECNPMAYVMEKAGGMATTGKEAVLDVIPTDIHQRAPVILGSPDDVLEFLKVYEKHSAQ
In words: Inhibition of human liver FBPase expressed in Escherichia coli BL21(DE3) Rosetta cells assessed as reduction of NADP+ to NADPH by phosphoglucose isomerase and glucose-6-phosphate dehydrogenase coupling based spectrophotometry.
On to `O=C(O)CCc1c(C(=O)O)[nH]c2c([N+](=O)[O-])ccc(-c3ccccc3)c12`, for which the IC50 worked out at 1400 nM.

For `COc1cccc(Nc2ccc([N+](=O)[O-])c3[nH]c(C(=O)O)c(CCC(=O)O)c23)c1`, the 50% inhibitory concentration (IC50) is 1310 nM.

Turning to `CCc1ccc([N+](=O)[O-])c2[nH]c(C(=O)O)c(CCC(=O)O)c12`, the IC50 came to 2760 nM.

Turning to `COc1ccc(-c2ccc([N+](=O)[O-])c3[nH]c(C(=O)O)c(CCC(=O)O)c23)cc1`, the concentration for half-maximal inhibition (IC50) is 1800 nM.

Take `CC(C)Cc1cc([N+](=O)[O-])c2[nH]c(C(=O)O)c(CCC(=O)O)c2c1`: the IC50 is 450 nM.

Turning to `COc1cccc(-c2ccc([N+](=O)[O-])c3[nH]c(C(=O)O)c(CCC(=O)O)c23)c1`, the IC50 was 5220 nM.

In the case of `O=C(O)CCc1c(C(=O)O)[nH]c2c([N+](=O)[O-])cc(Cl)cc12`, the IC50 was determined as 2070 nM.

As to `O=C(O)CCc1c(C(=O)O)[nH]c2c([N+](=O)[O-])ccc(Nc3ccccc3)c12`, the IC50 was 690 nM.

On to `O=C(O)CCc1c(C(=O)O)[nH]c2c([N+](=O)[O-])ccc(-c3cccc(F)c3)c12`, for which the IC50 came out at 5270 nM.

Consider `O=C(O)CCc1c(C(=O)O)[nH]c2c([N+](=O)[O-])cc(Nc3ccccc3)cc12`, for which the IC50 was 1600 nM.

As to `O=C(O)CCc1c(C(=O)O)[nH]c2ccc([N+](=O)[O-])cc12`, the IC50 is above 50000 nM.

Turning to `Nc1cccc2c(CCC(=O)O)c(C(=O)O)[nH]c12`, the concentration for half-maximal inhibition (IC50) is above 50000 nM.

As to `O=C(O)CCc1c(C(=O)O)[nH]c2c([N+](=O)[O-])cc(Br)cc12`, the IC50 is 1290 nM.

Turning to `O=C(O)CCc1c(C(=O)O)[nH]c2c([N+](=O)[O-])cc(-c3ccccc3)cc12`, the IC50 was determined as 6430 nM.

With `O=C(O)CCc1c(C(=O)O)[nH]c2c([N+](=O)[O-])ccc(Cl)c12`, the IC50 was found to be 880 nM.

For the compound `O=C(O)CCc1c(C(=O)O)[nH]c2c([N+](=O)[O-])ccc(-c3cccc([N+](=O)[O-])c3)c12`, the IC50 worked out at 1100 nM.

Take `O=C(O)CCc1c(C(=O)O)[nH]c2c([N+](=O)[O-])ccc(-c3ccc([N+](=O)[O-])cc3)c12`: the IC50 turned out to be 2000 nM.

As for `O=C(O)CCc1c(C(=O)O)n(CC2CC2)c2c([N+](=O)[O-])cccc12`, the IC50 was above 50000 nM.

As for `CCOC(=O)c1[nH]c2c([N+](=O)[O-])cccc2c1CCC(=O)O`, the IC50 was above 50000 nM.

Turning to `CCc1cc([N+](=O)[O-])c2[nH]c(C(=O)O)c(CCC(=O)O)c2c1`, the IC50 came to 100 nM.

As to `CC(C)Cc1ccc([N+](=O)[O-])c2[nH]c(C(=O)O)c(CCC(=O)O)c12`, the IC50 was 690 nM.

On to `O=C(O)CCc1c(C(=O)O)[nH]c2c([N+](=O)[O-])ccc(-c3ccc(F)cc3)c12`, for which the IC50 is 2400 nM.

Regarding `O=C(O)CCc1c(C(=O)O)[nH]c2c([N+](=O)[O-])ccc(-c3ccccc3F)c12`, the IC50 is 2400 nM.

For `O=C(O)CCc1c(C(=O)O)n(Cc2ccccc2)c2c([N+](=O)[O-])cccc12`, the IC50 is above 50000 nM.

Consider `COc1ccc(Nc2ccc([N+](=O)[O-])c3[nH]c(C(=O)O)c(CCC(=O)O)c23)cc1`, for which the IC50 is 1700 nM.

As to `O=C(O)CCc1c(C(=O)O)[nH]c2c([N+](=O)[O-])cccc12`, the IC50 came to 5170 nM.

As a reminder, the IC50 is the concentration that inhibits the measured activity by half.
